Entries after “also recorded” stand apart in the source; their conditions may differ.
Columns and labels:
[1] = tested on: MMP-9; details: rats pre-treated intravenously with U0126 vs saline, 2 hr focal ischemia
Description: In this investigation, rats were pre-treated with either saline or U0126 intravenously, then subjected to 2 hr focal ischemia. U0126 inhibits MEK, which is the upstream kinase that activates ERK.

[2] = tested on: p38 MAP kinase; assay: Western blot of phospho-p38 after tPA exposure in vitro; format: cell-based; details: 40 μg/ml tPA; rat cultures
Description: (§1) The presence of MMP upregulation following activation of various signaling pathways after tPA binds to LRP, was investigated. In this investigation, MAP kinase was examined.

[3] = tested on: primary co-cultures of neurons/astrocytes from rat brain; assay: Cytotoxicity assay of LDH release, neuron/astrocyte co-cultures; format: cell-based; details: different doses of tPA
Description: (§2) Different doses of tPA were added to primary co-cultures of neurons/astrocytes from rat brain, or microvessel endothelial cells from human brain. Cytotoxicity assays of LDH release confirmed that these doses were not toxic, consistent with our previous published experience using tPA in vitro (Wang X, et al., Neurosci Lett 274:79-82, 1999). In addition, these doses are within range of plasma concentrations in patients treated with intravenous tPA (NINDS rt-PA Stroke Study Group, New Engl J Med 333:1581-1587, 1995).

[4] = tested on: ERK; assay: Western blot of phospho-ERK after tPA exposure in vitro; format: cell-based; details: 40 μg/ml tPA; rat cultures
Description: as §1

[5] = tested on: MMP-9; assay: tPA-induced MMP-9 production in wild-type murine embryonic fibroblasts (MEF-1); format: cell-based, mouse; details: wild-type MEF-1 cells
[6] = tested on: MMP-9; assay: tPA-induced MMP-9 production in LRP knockout murine embryonic fibroblasts (PEA-13); format: cell-based, mouse; details: LRP knockout PEA-13 cells
[7] = tested on: MMP-9; assay: Zymography of conditioned media, brain microvessel endothelial cells, MMP-9; format: cell-based, human
Description: as §2

[8] = tested on: microvessel endothelial cells from human brain; assay: Cytotoxicity assay of LDH release, brain endothelial cells; format: cell-based; details: different doses of tPA
Description: as §2

[9] = tested on: MMP-2; assay: Zymography of conditioned media, brain microvessel endothelial cells, MMP-2; format: cell-based; details: human brain endothelial cells
Description: as §2

[10] = tested on: MMP-2; assay: Gelatin zymography of brain after embolic focal ischemia, MMP-2; format: in vivo, rat; details: tPA 10 mg/kg, 6 hrs post-ischemia; 12 hrs after embolic focal ischemia; vs saline
Description: (§3) The use of BB-94 provided pharmacologic evidence that MMPs were involved in tPA-induced hemorrhage. The role of tPA in further increasing MMP levels was investigated (Sumii, T, E. H. Lo, Stroke 33:831-836, 2002; Aoki, T., et al., Stroke 33:2711-2717, 2002). At 12 hrs after embolic focal ischemia in rats, gelatin zymograms show an upregulation in MMP-9, as expected (FIG. 2A). […] This is an important point since MMP-9 is already produced in ischemic brain. The relevance of tPA-induced MMP-9 is dependent on how much more is released.

[11] = tested on: MMP-9; assay: Zymography of conditioned media, neuron/astrocyte co-cultures, MMP-9; format: cell-based, rat; details: 24 hr exposure to tPA
Description: as §2

[12] = tested on: MMP-9; assay: Gelatin zymography of brain after mechanical (filament) transient focal ischemia, MMP-9; format: in vivo, rat; details: 2 hr transient filament occlusion, reperfused 3, 6, or 24 hrs; tPA 10 mg/kg at onset of reperfusion; vs saline
Description: Similar findings were obtained in mechanical (filament) models of focal ischemia. Rats were subjected to transient occlusions for 2 hrs, then reperfused for 3, 6, or 24 hrs. Saline controls were compared with rats treated with 10 mg/kg of tPA at the onset of reperfusion.

[13] = tested on: MMP-9; assay: Gelatin zymography of brain after embolic focal ischemia, MMP-9; format: in vivo, rat; details: tPA 10 mg/kg, 6 hrs post-ischemia; 12 hrs after embolic focal ischemia; vs saline
Description: as §3

Molecule	ischemic upregulation of MMP-9 [1]	activation of p38 MAP kinase pathway (phospho-p38) [2]	cytotoxicity (LDH release) [3]	activation of ERK pathway (phospho-ERK) [4]	MMP-9 production [5]	MMP-9 response [6]	secretion of MMP-9 ([7]; cerebral microvessel endothelial cells, 24 hr exposure to tPA)	dose- and time-dependence of tPA-induced MMP-9 release ([7]; human brain endothelial cells)	cytotoxicity (LDH release) [8]	dose- and time-dependence of tPA-induced MMP-2 release [9]	MMP-2 levels in brain (gelatin zymograms) [10]	secretion of MMP-9 [11]	upregulation of MMP-9 in brain (gelatin zymograms) [12]	MMP-9 levels in brain (gelatin zymograms) [13]
N#CC(=C(/N)Sc1ccccc1N)/C(C#N)=C(\N)Sc1ccccc1N [U0126]	can attenuate ischemic upregulation of MMP-9; also recorded: attenuated MMP-9 levels	–	–	–	–	–	–	–	–	–	–	–	–	–
tPA: tissue plasminogen activator (alteplase), thrombolytic agent	–	activation; also recorded: rapidly activated	not toxic	activation of ERK; also recorded: rapidly activated	induced MMP-9 production	no tPA-induced MMP-9 response; also recorded: no significant response	clearly induced secretion of MMP-9; also recorded: increased MMP-9 secretion	clear dose- and time-dependence	not toxic	clear dose- and time-dependence	slightly increased but the difference did not reach statistical significance	clearly induced secretion of MMP-9; also recorded: increased MMP-9 secretion	clearly amplified the upregulation of MMP-9; also recorded: MMP-9 is amplified	more than doubled the production of MMP-9; also recorded: doubling of MMP-9

Source: patent US20060263351A1, “Methods and compositions for protection against thrombolysis associated reperfusion injury” (The General Hospital Corporation, priority 2002, published 2006)
